# Measured values taken from patent US6403561B1, “Tripeptidylpeptidase inhibitors” (Institut National de la Sante et de la Recherche Medicale …, priority 1998, dated 2002).
# Structures can show the parent of a compound that is named as a salt. Where a SMILES comes first, the peptide text is derived from it. [ ]: non-standard residue; d: D form. The star is where a group is joined. ξ: configuration not given here. Pro(cis-4-F) = O=C(O)[C@@H]1C[C@H](F)CN1; Tic = O=C(O)[C@@H]1Cc2ccccc2CN1; Abu = CC[C@H](N)C(=O)O; ξAbu = CCC(N)C(=O)O; NHBu = CCCCN*; NHPr = CCCN*
# Target: membrane-bound tripeptidylpeptidase II (Rattus norvegicus, UniProt Q64560)
# Test: Measurement of the activity of membrane-bound tripeptidylpeptidase (release of Amc from A-AP-Amc, fluorimetry)
# Conditions: Ki, apparent dissociation constant calculated from the 50% inhibitory concentration and the KM of the substrate (23 μM); rat brain membranes, 50 μM A-AP-Amc
# Chain of membrane-bound tripeptidylpeptidase II (Q64560 whole entry): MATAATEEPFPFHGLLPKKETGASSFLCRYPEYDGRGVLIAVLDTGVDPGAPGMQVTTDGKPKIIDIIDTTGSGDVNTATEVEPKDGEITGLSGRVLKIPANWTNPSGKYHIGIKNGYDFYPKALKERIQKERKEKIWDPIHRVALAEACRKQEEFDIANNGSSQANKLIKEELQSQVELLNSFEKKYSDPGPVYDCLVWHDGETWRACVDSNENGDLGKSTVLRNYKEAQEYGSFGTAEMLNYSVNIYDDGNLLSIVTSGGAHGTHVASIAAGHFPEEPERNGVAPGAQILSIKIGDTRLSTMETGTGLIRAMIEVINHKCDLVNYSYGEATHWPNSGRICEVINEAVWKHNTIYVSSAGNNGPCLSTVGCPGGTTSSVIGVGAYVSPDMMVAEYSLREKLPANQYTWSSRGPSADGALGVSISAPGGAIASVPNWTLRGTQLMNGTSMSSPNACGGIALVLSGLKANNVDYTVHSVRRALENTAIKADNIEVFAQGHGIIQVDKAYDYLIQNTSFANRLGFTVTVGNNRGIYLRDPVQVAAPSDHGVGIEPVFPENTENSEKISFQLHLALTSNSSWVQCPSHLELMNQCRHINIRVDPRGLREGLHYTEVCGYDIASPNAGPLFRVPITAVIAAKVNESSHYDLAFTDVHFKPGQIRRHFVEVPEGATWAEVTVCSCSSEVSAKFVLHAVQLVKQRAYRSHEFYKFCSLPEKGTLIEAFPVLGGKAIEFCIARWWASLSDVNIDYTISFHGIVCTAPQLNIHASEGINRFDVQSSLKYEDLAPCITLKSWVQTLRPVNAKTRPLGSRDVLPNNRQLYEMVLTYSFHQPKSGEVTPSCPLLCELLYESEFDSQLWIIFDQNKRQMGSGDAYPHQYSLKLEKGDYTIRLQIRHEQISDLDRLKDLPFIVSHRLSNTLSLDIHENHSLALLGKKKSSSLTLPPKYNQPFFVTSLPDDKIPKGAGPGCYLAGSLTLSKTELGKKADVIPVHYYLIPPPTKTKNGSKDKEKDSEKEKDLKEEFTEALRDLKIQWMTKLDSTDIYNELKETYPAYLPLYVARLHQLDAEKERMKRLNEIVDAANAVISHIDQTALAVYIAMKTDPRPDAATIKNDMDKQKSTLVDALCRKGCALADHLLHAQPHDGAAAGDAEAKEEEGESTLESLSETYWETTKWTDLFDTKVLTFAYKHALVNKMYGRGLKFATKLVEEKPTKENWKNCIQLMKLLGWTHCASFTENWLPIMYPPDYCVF
row,Compound,Ki [nM]
1,"CCCCNC(=O)C1Cc2cc(OC)ccc2N1C(=O)[C@@H](N)CC (mixture of isomers) [Example 18, 1-(2(S)-amino-butyryl)-2(R/S)-(5-methoxy)indolinecarboxylic Acid n-butylamide]",8
2,"CCCCNC(=O)C1Cc2ccc(OC)cc2N1C(=O)[C@@H](N)CC (mixture of isomers) [Example 19, 1-(2(S)-aminobutyryl)-2(R/S)-(6-methoxy)indolinecarboxylic acid n-butylamide]",77
3,"CCCCNC(=O)C1Cc2cc(F)ccc2N1C(=O)[C@@H](N)CC (mixture of isomers) [Example 20, 1-(2(S)-aminobutyryl)-2(R/S)-(5-fluoro)indolinecarboxylic Acid N-butylamide]",12
4,"CCC(N)C(=O)N1CCC[C@H]1C(N)=O (stereo partly drawn) [2 (S)-aminobutyryl-L-prolineamide, reference compound] (H-[ξAbu]-Pro-NH2)",570
5,"CCCCNC(=O)[C@H]1Cc2cc(OC)ccc2N1C(=O)[C@@H](N)CC [18 (S,R) isomer]",241
6,"CCCCNC(=O)[C@@H]1Cc2cc(OC)ccc2N1C(=O)[C@@H](N)CC [18 (S,S) isomer]",6
7,"CCCCCCNC(=O)[C@@H]1CCCN1C(=O)[C@@H](N)C(C)C [Example 1, L-valyl-L-proline n-hexylamide]",900
8,"CC[C@H](N)C(=O)N1CCC[C@H]1C(=O)NCCCSC [Example 2, 1-(2(S)-amino-butyryl)-L-proline 3-(methylthio)propylamide]",300
9,"CCCCCNC(=O)[C@@H]1CCCN1C(=O)[C@@H](N)CC [Example 3, 1-(2(S)-aminobutyryl)-L-proline n-pentylamide]",270
10,"CCCCNC(=O)[C@@H]1CCCN1C(=O)[C@@H](N)CC [Example 4, 1-(2(S)-amino-butyryl)-L-proline n-butylamide] (H-[Abu]-Pro-NHBu)",100
11,"CC[C@H](C)CNC(=O)[C@@H]1CCCN1C(=O)[C@@H](N)CC [Example 5, 1-(2(S)-aminobutyryl)-L-proline [2(S)methyl]butylamide]",500
12,"CCCNC(=O)[C@@H]1CCCN1C(=O)[C@@H](N)CC [Example 6, 1-(2(S)-amino-butyryl)-L-proline n-propylamide] (H-[Abu]-Pro-NHPr)",80
13,"CC[C@H](N)C(=O)N1CCC[C@H]1C(=O)NCC(C)C [Example 7, 1-(2(S)-amino-butyryl)-L-proline isobutylamide]",320
14,"CCCCNC(=O)[C@@H]1CCCN1C(=O)[C@@H](N)C(C)C [Example 8, L-valyl-L-proline n-butylamide] (H-Val-Pro-NHBu)",570
15,"CCCCNC(=O)[C@@H]1C[C@H](F)CN1C(=O)[C@@H](N)CC [Example 11, 1-(2(S)-amino-butyryl)-(4(S)-fluoro)-L-proline n-butylamide] (H-[Abu]-[Pro(cis-4-F)]-NHBu)",320
16,"CCCCNC(=O)[C@@H]1Cc2ccccc2CN1C(=O)[C@@H](N)CC [Example 13, 2-(2(S)-amino-butyryl)-1,2,3,4-tetrahydro-3(S)-isoquinolinecarboxylic Acid n-butylamide] (H-[Abu]-[Tic]-NHBu)",40

# Other lines, results leading:
row,Ki [nM],Compound
1,1000,CCCCNC(=O)C1Cc2cc(OCc3ccccc3)ccc2N1C(=O)[C@@H](N)CC (mixture of isomers) [Example 21]
2,143,"CCCCNC(=O)C1c2ccccc2CN1C(=O)[C@@H](N)CC (mixture of isomers) [Example 23, 2-(2(S)-aminobutyryl)-1-(R/S)-isoindolinecarboxylic Acid N-butylamide]"
3,146,"CCCCNC(=O)C1Cc2cc(OC)ccc2N1C(=O)[C@@H](N)C(C)C (mixture of isomers) [Example 24, 1-(L-valyl)-5-methoxyindoline-2(R/S)-carboxylic Acid Butylamide Oxalate]"
4,26,"CCCCNC(=O)C1Cc2cc(OC)ccc2N1C(=O)[C@H](C)N (mixture of isomers) [Example 25, 1-(L-alanyl)-5-methoxyindoline-2(R/S)-carboxylic Acid Butylamide Oxalate]"
5,14,"CCCCNC(=O)C1Cc2c(OC)cccc2N1C(=O)[C@@H](N)CC (mixture of isomers) [Example 27, 1-(2(S)-aminobutyryl)-4-methoxyindoline-2(R/S)-carboxylic Acid Butylamide Oxalate]"
6,864,"CCCCNC(=O)C1N(C(=O)[C@@H](N)CC)c2ccccc2C1(C)C (mixture of isomers) [Example 28, 1-(2(S)-aminobutyryl)-3,3-dimethylindoline-2(R/S)-carboxylic Acid Butylamide Oxalate]"
7,9.6,"CCCCNC(=O)C1Cc2c(ccc(OC)c2OC)N1C(=O)[C@@H](N)CC (mixture of isomers) [Example 32, 1-(2(S)-aminobutyryl)-4,5-dimethoxyindoline-2(R/S)-carboxylic Acid Butylamide Oxalate]"
8,10.4,"CCCCNC(=O)C1Cc2cc(O)ccc2N1C(=O)[C@@H](N)CC (mixture of isomers) [Example 34, 1-2(S)-aminobutyryl-5-hydroxyindoline-2(R/S)-carboxylic Acid Butylamide Oxalate]"
9,22.6,"CCCCNC(=O)C1Cc2cc(C)ccc2N1C(=O)[C@@H](N)CC (mixture of isomers) [Example 35, 1-2(S)-aminobutyryl-5-methylindoline-2(R/S)-carboxylic Acid Butylamide Oxalate]"
10,593,"CCCCNC(=O)C1C(C)c2ccccc2N1C(=O)C(N)CC (single isomer, unassigned) [Example 29]"
11,32,"CCCCNC(=O)C1C(C)c2ccccc2N1C(=O)C(N)CC (single isomer, unassigned) [Example 30]"

# Same assay, conditions: apparent dissociation constant calculated from the 50% inhibitory concentration and the KM of the substrate (23 μM); rat brain membranes, 50 μM A-AP-Amc
row,Compound,Ki [nM]
1,"CCCCNC(=O)[C@@H]1C[C@H](Cc2ccccc2)CN1C(=O)[C@@H](N)CC [Example 12, 1-(2(S)-aminobutyryl)-(4(S)-benzyl)-L-proline n-butylamide]",140
2,L-alanyl-L-prolyldifluoro-L-borovaline borohydride [Example 10],0.3

# System: not given
# Test: not given
# Conditions: not given
row,Compound,melting point [°C]
1,CCCNC(=O)[C@@H]1Cc2ccccc2N1C(=O)[C@@H](N)CC (as salt: oxalate) (hydrate or solvate),130 to 131
2,"CC[C@H](N)C(=O)N1c2ccccc2C[C@H]1C(=O)NC (as salt: oxalate) (hydrate or solvate) [Example 16, 1-(2(S)-aminobutyryl)-2(S)-indolinecarboxylic Acid methylamide]",138 to 139
3,"CCCCCCNC(=O)[C@@H]1CCCN1C(=O)[C@@H](N)C(C)C (as salt: oxalate) [Example 1, L-valyl-L-proline n-hexylamide]",146 to 147
4,"CC[C@H](N)C(=O)N1CCC[C@H]1C(=O)NCCCSC (as salt: oxalate) [Example 2, 1-(2(S)-amino-butyryl)-L-proline 3-(methylthio)propylamide]",120 to 121
5,"CCCCCNC(=O)[C@@H]1CCCN1C(=O)[C@@H](N)CC (as salt: oxalate) [Example 3, 1-(2(S)-aminobutyryl)-L-proline n-pentylamide]",140 to 141
6,"CCCCNC(=O)[C@@H]1CCCN1C(=O)[C@@H](N)CC (as salt: oxalate) [Example 4, 1-(2(S)-amino-butyryl)-L-proline n-butylamide] (H-[Abu]-Pro-NHBu)",165 to 167
